Measurements reported in patent publication US20260295053A1, “COMPOUNDS FOR DEGRADATION AND INHIBITION OF KRAS (G12D) PROTEIN” (Shenzhen Ionova Life Science Co., Ltd., priority 2023, published 2026).

Assays:
KRAS (G12D) = biological target: T1, KRAS (G12D) (Homo sapiens, UniProt P01116, G12D); test: KRAS (G12D) cellular degradation assay in AsPC-1 cells; type: cell-based; settings: 24 hours, antibody fluorescence (Odyssey CLX), DC50 half-maximal degradation concentration
T1 construct: in-cell western with KRAS G12D antibody after 24 h
How it was run: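 AsPC-1 cells: for degradation, grown to ~90% confluency, treated 24 h with 1:3 compound series ([…] to 1.5 nM), then fixed and immunostained for KRAS G12D and β-actin, read by infrared fluorescence, DC50 fitted. Proliferation: 3,500 cells/well, 6-day treatment, CellTiter Glo luminescence, IC50 fitted.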

AsPC-1 cells = test: AsPC-1 cell proliferation assay (CellTiter Glo); type: cell-based; settings: Homo sapiens, ASPC1, 144 h, 6 days
Procedure: ASPC-1 and PK-59 cellular assays ASPC-1 (ATCC cat. CRL-1682) and PK-59 (Nanjing Cobioer, Cat. No. CBP61184) were used in KRAS cellular degradation, pERK inhibition and proliferation assays. The two cell lines were maintained following vendor's instructions. For monitoring KRAS (G12D) cellular degradation and pERK biomarker inhibition, cells were seeded into a 96-well plate with 22,000 and 16,000 cells/well for assays in ASPC-1 and PK-59, respectively. Cells were incubated at 37° C. with 5% CO2 and cell density was monitored until ^~90% confluency was reached. Compounds were serially diluted at a 1:3 ratio and dispensed into each well at final concentrations ranging from […] to 1.5 nM. After incubation for 24 hours, the culture media were removed and the cells were subjected to fixation, permeabilization and blocking (Intercept blocking buffer, Li-cor). For KRAS (G12D) degradation, the cells were treated with primary antibody (KRAS G12D antibody, Cell Signaling Technologies, Cat. No. CST14429) and for β-actin (β-actin mAb, Beyotime, Cat. No. AF-5001), and followed by secondary antibodies, Anti-rabbit IgG (H+L) (DyLight™ 800 4×PEG Conjugate) or IRDye® 680RD Goat anti-Mouse IgG. For pERK inhibition assay, cells were treated with primary antibodies for pERK (Phospho-p44/42 MAPK (Erk1/2) (Thr202/Tyr204) (D13.14.4E) XP® Rabbit mAb, Cell Signaling Technologies, Cat. No. CST-4370) and β-actin (β-actin mAb, Beyotime, Cat. No. AF-5001), and followed by secondary antibodies, Anti-rabbit IgG (H+L) (DyLight™ 800 4×PEG Conjugate) or IRDye® 680RD Goat anti-Mouse IgG. Fluorescence signals were read on Odyssey CLX instrument. For cell proliferation assays, cells were seeded into a 96-well plate at 3,500 and 800 cells/well for assays in ASPC-1 and PK-59, respectively. Cells were incubated at 37° C. with 5% CO2 for overnight. Compounds were serially diluted at a 1:3 ratio and dispensed into each well at final concentrations ranging from […] to 1.5 nM. After incubation for 6 days, cell viability reagent (CellTiter Glo, Promega, Cat. No. G7573) was added to each well and luminescence was recorded on Molecular Devices Spectramax iD3 instrument. IC50, half-maximal inhibitory concentration for pERK inhibition or cell proliferation, and DC50, half-maximal degradation concentration in KRAS (G12D) cellular degradation were determined by fitting the corresponding dose response curves using GraphPad Prism software.
Wherein “A” means the value <10 nM, “B” means 10 nM<the value <100 nM, “C” means 100 nM<the value <1000 nM, and “D” means the value >1000 nM, in which, the value means the value of DC50 or IC50. NT means not tested.

T1 sequence (P01116 1-188 isoform P01116-2 G12D): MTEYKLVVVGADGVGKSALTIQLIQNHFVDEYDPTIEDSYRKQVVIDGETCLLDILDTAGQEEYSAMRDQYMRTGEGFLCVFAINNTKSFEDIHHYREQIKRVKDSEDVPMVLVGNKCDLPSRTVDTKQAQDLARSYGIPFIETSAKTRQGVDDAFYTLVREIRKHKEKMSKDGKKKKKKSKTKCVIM

DC50 (KRAS (G12D)) [nM]	IC50 (AsPC-1 cells) [nM]	SMILES
10 to 100	< 10	CO[C@@H](C)COc1nc(N2C[C@@H]3C[C@H]2CN3)c2cc(C3CC3)c(-c3c(C)c(F)cc4[nH]ncc34)c(OCc3ccc(-c4cn([C@H](C(=O)N5C[C@H](O)C[C@H]5C(=O)N[C@H](C#Cc5cccc(F)c5Cl)CO)C(C)C)nn4)cc3)c2n1 [Example 98, (2S,4R)-1-((2S)-2-(4-(4-(((4-((1S,4S)-2,5-diazabicyclo[2.2.1]heptan-2-yl)-6-cyclopropyl-7-(6-fluoro-5-methyl-1H-indazol-4-yl)-2-((S)-2-methoxypropoxy)quinazolin-8-yl)oxy)methyl)phenyl)-1H-1,2,3-triazol-1-yl)-3-methylbutanoyl)-N—((R)-4-(2-chloro-3-fluorophenyl)-1-hydroxybut-3-yn-2-yl)-4-hydroxypyrrolidine-2-carboxamide]
< 10	< 10	CCn1nccc1-c1ccc([C@H](CO)NC(=O)[C@@H]2C[C@@H](O)CN2C(=O)[C@H](C(C)C)n2cc(-c3ccc(COc4c(-c5c(C)c(F)cc6[nH]ncc56)c(C5CC5)cc5c(N6C[C@@H]7C[C@H]6CN7)nc(OCC6(C(F)F)CCOCC6)nc45)cc3)nn2)cc1 [Example 65, (2S,4R)-1-((2S)-2-(4-(4-(((4-((1S,4S)-2,5-diazabicyclo[2.2.1]heptan-2-yl)-6-cyclopropyl-2-((4-(difluoromethyl)tetrahydro-2H-pyran-4-yl)methoxy)-7-(6-fluoro-5-methyl-1H-indazol-4-yl)quinazolin-8-yl)oxy)methyl)phenyl)-1H-1,2,3-triazol-1-yl)-3-methylbutanoyl)-N—((R)-1-(4-(1-ethyl-1H-pyrazol-5-yl)phenyl)-2-hydroxyethyl)-4-hydroxypyrrolidine-2-carboxamide]
< 10	< 10	CCn1nccc1-c1ccc([C@H](CO)NC(=O)[C@@H]2C[C@@H](O)CN2C(=O)[C@H](C(C)C)n2cc(-c3ccc(COc4c(-c5c(C)c(F)cc6[nH]ncc56)c(C5CC5)cc5c(N6C[C@@H]7C[C@H]6CN7)nc(OC6CC7(CCOCC7)C6)nc45)cc3)nn2)cc1 [Example 105, (2S,4R)-1-((2S)-2-(4-(4-(((2-((7-oxaspiro[3.5]nonan-2-yl)oxy)-4-((1S,4S)-2,5-diazabicyclo[2.2.1]heptan-2-yl)-6-cyclopropyl-7-(6-fluoro-5-methyl-1H-indazol-4-yl)quinazolin-8-yl)oxy)methyl)phenyl)-1H-1,2,3-triazol-1-yl)-3-methylbutanoyl)-N—((R)-1-(4-(1-ethyl-1H-pyrazol-5-yl)phenyl)-2-hydroxyethyl)-4-hydroxypyrrolidine-2-carboxamide]
< 10	< 10	CCn1cc2c(C#C[C@H](CO)NC(=O)[C@@H]3C[C@@H](O)CN3C(=O)[C@H](C(C)C)n3cc(-c4ccc(COc5c(-c6c(C)c(F)cc7[nH]ncc67)c(C6CC6)cc6c(N7C[C@@H]8C[C@H]7CN8)nc(OC[C@H](C)OC)nc56)cc4)nn3)cccc2n1 [Example 162, (2S,4R)-1-((2S)-2-(4-(4-(((4-((1S,4S)-2,5-diazabicyclo[2.2.1]heptan-2-yl)-6-cyclopropyl-7-(6-fluoro-5-methyl-1H-indazol-4-yl)-2-((S)-2-methoxypropoxy)quinazolin-8-yl)oxy)methyl)phenyl)-1H-1,2,3-triazol-1-yl)-3-methylbutanoyl)-N—((R)-4-(2-ethyl-2H-indazol-4-yl)-1-hydroxybut-3-yn-2-yl)-4-hydroxypyrrolidine-2-carboxamide]
< 10	< 10	CCn1nccc1-c1ccc([C@H](CO)NC(=O)[C@@H]2C[C@@H](O)CN2C(=O)[C@H](C(C)C)n2cc(-c3ccc(COc4c(-c5c(C)c(F)cc6[nH]ncc56)c(C5CC5)cc5c(N6C[C@@H]7C[C@H]6CN7)nc(OC6CCC(OC)CC6)nc45)cc3)nn2)cc1 (stereo partly drawn) [Example 70, (2S,4R)-1-((2S)-2-(4-(4-(((4-((1S,4S)-2,5-diazabicyclo[2.2.1]heptan-2-yl)-6-cyclopropyl-7-(6-fluoro-5-methyl-1H-indazol-4-yl)-2-((4-methoxycyclohexyl)oxy)quinazolin-8-yl)oxy)methyl)phenyl)-1H-1,2,3-triazol-1-yl)-3-methylbutanoyl)-N—((R)-1-(4-(1-ethyl-1H-pyrazol-5-yl)phenyl)-2-hydroxyethyl)-4-hydroxypyrrolidine-2-carboxamide]
< 10	< 10	Cc1ncsc1-c1ccc([C@H](CO)NC(=O)[C@@H]2C[C@@H](O)CN2C(=O)[C@H](C(C)C)n2cc(-c3ccc(COc4c(-c5c(C)c(F)c(F)c6[nH]ncc56)c(C5CC5)cc5c(N6C[C@@H]7C[C@H]6CN7)nc(OC6CCOCC6)nc45)cc3)nn2)cc1 [Example 76, (2S,4R)-1-((2S)-2-(4-(4-(((4-((1S,4S)-2,5-diazabicyclo[2.2.1]heptan-2-yl)-6-cyclopropyl-7-(6,7-difluoro-5-methyl-1H-indazol-4-yl)-2-((tetrahydro-2H-pyran-4-yl)oxy)quinazolin-8-yl)oxy)methyl)phenyl)-1H-1,2,3-triazol-1-yl)-3-methylbutanoyl)-4-hydroxy-N—((R)-2-hydroxy-1-(4-(4-methylthiazol-5-yl)phenyl)ethyl)pyrrolidine-2-carboxamide]
10 to 100	10 to 100	CO[C@@H](C)COc1nc(N2C[C@H]3C[C@@H]2CN3)c2cc(C3CC3)c(-c3c(C)c(F)cc4[nH]ncc34)c(OCc3ccc(-c4cn([C@H](C(=O)N5C[C@H](O)C[C@H]5C(=O)NCc5ccc(-c6scnc6C)cc5)C(C)C)nn4)cc3)c2n1 (single isomer, unassigned) [Example 11A]
10 to 100	–	CCn1nccc1-c1ccc([C@H](CO)NC(=O)[C@@H]2C[C@@H](O)CN2C(=O)[C@H](C(C)C)n2cc(-c3ccc(COc4c(-c5c(C)c(F)cc6[nH]ncc56)c(C5CC5)cc5c(N6C[C@@H]7CN[C@@H](C7)C6)nc(OC[C@H](C)OC)nc45)cc3)nn2)cc1 [Example 229, (2S,4R)-1-((2S)-2-(4-(4-(((4-((1S,5S)-3,6-diazabicyclo[3.2.1]octan-3-yl)-6-cyclopropyl-7-(6-fluoro-5-methyl-1H-indazol-4-yl)-2-((S)-2-methoxypropoxy)quinazolin-8-yl)oxy)methyl)phenyl)-1H-1,2,3-triazol-1-yl)-3-methylbutanoyl)-N—((R)-1-(4-(1-ethyl-1H-pyrazol-5-yl)phenyl)-2-hydroxyethyl)-4-hydroxypyrrolidine-2-carboxamide]

SMILES	DC50 (KRAS (G12D)) [nM]	IC50 (AsPC-1 cells) [nM]
CO[C@H]1C[C@@H](Oc2nc(N3C[C@@H]4C[C@H]3CN4)c3cc(C4CC4)c(-c4c(C)c(F)cc5[nH]ncc45)c(OCc4ccc(-c5cn([C@H](C(=O)N6C[C@H](O)C[C@H]6C(=O)N[C@@H](CO)c6ccc(-c7scnc7C)cc6)C(C)C)nn5)cc4)c3n2)C1 [Example 102, (2S,4R)-1-((2S)-2-(4-(4-(((4-((1S,4S)-2,5-diazabicyclo[2.2.1]heptan-2-yl)-6-cyclopropyl-7-(6-fluoro-5-methyl-1H-indazol-4-yl)-2-((1s,3R)-3-methoxycyclobutoxy)quinazolin-8-yl)oxy)methyl)phenyl)-1H-1,2,3-triazol-1-yl)-3-methylbutanoyl)-4-hydroxy-N—((R)-2-hydroxy-1-(4-(4-methylthiazol-5-yl)phenyl)ethyl)pyrrolidine-2-carboxamide]	< 10	< 10
CCn1nccc1-c1ccc([C@H](CO)NC(=O)[C@@H]2C[C@@H](O)CN2C(=O)[C@H](C(C)C)n2cc(-c3ccc(COc4c(-c5c(C)c(F)cc6[nH]ncc56)c(C5CC5)cc5c(N6C[C@@H]7C[C@H]6CN7)nc(O[C@H]6C[C@H](OC)C6)nc45)cc3)nn2)cc1 [Example 74, (2S,4R)-1-((2S)-2-(4-(4-(((4-((1S,4S)-2,5-diazabicyclo[2.2.1]heptan-2-yl)-6-cyclopropyl-7-(6-fluoro-5-methyl-1H-indazol-4-yl)-2-((1r,3S)-3-methoxycyclobutoxy)quinazolin-8-yl)oxy)methyl)phenyl)-1H-1,2,3-triazol-1-yl)-3-methylbutanoyl)-N—((R)-1-(4-(1-ethyl-1H-pyrazol-5-yl)phenyl)-2-hydroxyethyl)-4-hydroxypyrrolidine-2-carboxamide]	< 10	< 10
